The source of these data is patent US20060286626A1, “Selective chromophores” (priority 2002, published 2006).

“Also recorded” adds a separate entry of the source.

Common to all, as to assay type: cell-based
Assay [1] has as its system sections of testis from rat. Briefly: Fluorescent staining of testis sections from rat. The conditions noted are these: for concentration dependence of staining in testis: 0.05-50 μg/ml; for cells stained / affinity in testis: 15 minutes incubation, concentration not given. As for the experimental part:
Testis tissues were obtained from a male Sprague-Dawley rat, which has been used as a control in another study. The tissues were fixed in 4% formaldehyde, imbedded in paraffin and sectioned into 4 μm thick slices before dewaxed and hydrated. Stock solutions containing 5 mg dye/ml DMSO and ethanol were made. These were diluted to 0.05, 0.5, 5, 10, and 50 μg/ml with water. At the time of the experiment, 100 μl from each solution was added to the sections, respectively. The sections were incubated for 15 minutes before the excess dye was removed by washing with water.
To se if and if so, the position of benzosuccinimidyl as a substituent alters the affinity of the dyes testis was stained with the two PASU dyes.
(§1) Fluorescence microscopic experiments were performed with a Zeizz (West Germany) microscope equipped with Plan Neofuar 40/0.9 I mm Ph3 and Plan Neofuar 25/0.8 W-Oel Ph2 objectives. A Winder M35 camera was used to obtain the microscopic images.

The test system of assay [2] is small intestine sections from rats. Briefly: Fluorescent staining of small intestine sections from rat.
From the text: Derivatives of Nile Red (FIG. 1) were synthesized and their staining of testis and small intestine sections from rats were studied. Nile Red is a member of benzophenoxazine compounds that provide a family of fluorescent dyes, which can be used, for labelling biological molecules in various applications. The phenoxazine dyes tend to have a large Stokes' shift of 80-100 nm. Nile Red is a highly fluorescent dye, which absorbs energy above 550 nm. Consequently it has mainly been used for lipid staining but also as a solvatrochromic probe to measure the solvent strength of several liquids.
as §1

Assay [3] has as its system human cell line of fibro sarcom, HT80. Briefly: Staining of human fibro sarcoma cells. The conditions noted are these: live HT80 cells, 5 μg/ml, without Triton-x. From the text:
The positively charged part of the molecule might bind to the anionic phosphate group of phospholipids present in the plasma membrane. Since the PASU dyes are uncharged and relatively small molecules they have the ability to pass through the outer layer of the cells. […] To answer the question of what the dyes have affinity for further investigations have to be performed. Furthermore the dyes can be used for detection of receptors of cells. […] By adding a substance that induce conformational changes of the receptor which result in that the dye fit to the receptor, or use a dye with a substituent that fit in the inactivated receptor, the targets, receptors, can be detected as small fluorescent particles, so called pits. Thus, the dyes can be used to detect receptors and follow conformational changes of the receptor, activation-inactivation of receptor.
The stock solutions of the dyes were diluted with PBS or PBS+Triton-x to 5 μg/ml when added to both fixed and unfixed mature fibro sarcoma cells, cell line HT 80. Due to lack of time only the live cells untreated with Triton-x are discussed in the result.

Consider `CN(C)c1ccc2nc3c4cc(OCCCN)ccc4c(=O)cc-3oc2c1` [PA-2, 2-(3-Amino-propoxy)-9-dimethylamino-benzo[a]phenoxazine-5-one], for which the “concentration dependence of staining in testis” value in assay [1] is given as “the concentration of the dye added to the tissue determined which cells that were stained”. The “cells stained / affinity in testis” value in assay [1] is “stains stem cells selectively; also recorded: stains stem cells and spermatocytes; also recorded: high affinity for stem cells and spermatocytes; also recorded: has affinity for stem cells at low concentrations”. In addition, the “cells stained in testis” value was “only stem cells were stained” in assay [1] (dye 0.05 μg/ml); “germ cells and spermatides fluoresced as well” in assay [1] (dye 0.5 μg/ml); “spermatocytes were stained as well” in assay [1] (dye 10 μg/ml). For the same compound, the “structures stained in small intestine” value in assay [2] (slices of small intestine from rat) is “all nucleuses”.
Regarding `CN(C)c1ccc2nc3c4cc(OCCCN5C(=O)c6ccccc6C5=O)ccc4c(=O)cc-3oc2c1` [PASU-1, 1-[3-(9-Dimethylamino-5-oxo-5H-benzo[a]phenoxazine-2-yloxy)-propyl]-isoindole-1,3-dione], the “cells stained / affinity in testis” value in assay [1] is “does not have any affinity”.
With `CN(C)c1ccc2nc3c4cc(OCCCN5C(=O)c6ccccc6C5=O)ccc4c(=O)cc-3oc2c1` [PASU-2, 2-[3-(9-Dimethylamino-5-oxo-5H-benzo[a]phenoxazine-2-yloxy)-propyl]-isoindole-1,3-dione], the “cells stained / affinity in testis” value in assay [1] was “stains spermatides and spermatozoa; also recorded: stain different cells and parts of cells; also recorded: has preferences to sperms and spermatides; also recorded: binds to spermatides and spermatozoa”. The “concentration dependence of staining in small intestine” value in assay [2] (small intestine from rat) is recorded as “differs a lot with the concentration of dye”. Also, in assay [3], the “part of the cell stained” value is on record as “stains the cytoplasm but not the nucleus”.
Turning to `CN(C)c1ccc2nc3c4cc(OCCCN5C(=O)c6ccccc6C5=O)ccc4c(=O)cc-3oc2c1` [PASU-3, 3-[3-(9-Dimethylamino-5-oxo-5H-benzo[a]phenoxazine-2-yloxy)-propyl]-isoindole-1,3-dione], in assay [1], the “cells stained / affinity in testis” value is “stain different cells and parts of cells; also recorded: stains stem cells but not spermatides and spermatozoa”.
For the compound `CN(C)c1ccc2nc3c4cc(OCCC[N+](C)(C)C)ccc4c(=O)cc-3oc2c1` [PATM-2, 9-Dimethylamino-2-(trimethylammonium-propoxy)-benzo[a]phenoxazin-5-one], in assay [1], the “concentration dependence of staining in testis” value is given as “no concentration dependence” and the “cells stained / affinity in testis” value is “stains germ cells”. Also, in assay [3], the “part of the cell stained” value is “stains the plasma membranes of the cells” and the “permeability of the plasma membrane” value is on record as “does not reach into the cytoplasm of the cells”.
